Assay [1] concerns the target T1, TAFIa (activated human TAFI) (Homo sapiens, UniProt Q96IY4).
T1 sequence (Q96IY4 115-423): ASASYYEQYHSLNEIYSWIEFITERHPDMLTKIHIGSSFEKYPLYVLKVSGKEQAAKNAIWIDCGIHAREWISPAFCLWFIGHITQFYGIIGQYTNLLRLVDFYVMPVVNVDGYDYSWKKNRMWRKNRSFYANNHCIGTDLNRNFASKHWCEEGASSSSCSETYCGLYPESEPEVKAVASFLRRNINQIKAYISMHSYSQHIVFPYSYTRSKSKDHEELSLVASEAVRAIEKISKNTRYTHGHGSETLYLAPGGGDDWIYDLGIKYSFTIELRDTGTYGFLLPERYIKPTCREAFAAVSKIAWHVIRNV
The assay is described as follows: Assay for TAFIa inhibition (Ki determination). The class given is biochemical. As to the method:
To determine the degree of TAFIa inhibition, compounds were incubated with activated TAFI, and the amount of inhibition expressed in terms of Ki.
Human TAFI (recombinant or purified) was activated by incubating 20 μl of stock solution (360 μg/ml) with 10 μl of human thrombin (10 NIH units/ml), 10 μl of rabbit thrombomodulin (30 μg/ml), 6 μl calcium chloride (50 mM) in 50 μL of 20 mM HEPES (N-[2-hydroxyethyl]piperazine-N-[2-ethanesulfonic acid]) buffer containing 150 mM sodium chloride and 0.01% TWEEN 80 (polyoxyethylene-sorbitan monooleate) pH 7.6 for 20 minutes at 22° C. At the end of the incubation period, thrombin was neutralized by the addition of 10 μL of PPACK (D-Phe-Pro-Arg chloromethyl ketone)(100 nM). TAFIa solution was stored on ice for 5 minutes and finally diluted with 175 μl of HEPES buffer.
A number of different dilutions of the test compound in water were made up. […] To each dilution was then added 20 μl furylacryloyl-alanyl-lysine (FAAL) at a standard concentration. Substrate turn over was measured by reading the absorbance of the reaction mixture at 330 nm every 15 seconds for 30 minutes. Reaction was performed at 24° C. and samples were mixed for 3 seconds prior to each absorbance reading.
A graph of % inhibition against test compound concentration was then plotted; from which was calculated the IC50 value. The Ki value may then be calculated using the Cheng-Prusoff equation.
For the first control, the assay was performed as above, but with 20 μl of water rather than a dilution of the test compound.

Assay [2] relates to thrombi in the left circumflex (LCX) coronary artery. The assay is described as follows: Lysis of coronary artery thrombi by TAFIa inhibitor in conjunction with t-PA. The class given is in vivo, dogs. The note with it: for injured vessels patent at the end of the experiment: 8 dogs/group, all groups received t-PA. The source says: The study was designed with 4 groups (8 dogs/group): • (i) aspirin pre-treatment/vehicle infusion; • (ii) no pre-treatment/vehicle infusion; • (iii) no pre-treatment/TAFIa inhibitor; and • (iv) aspirin pre-treatment/TAFIa inhibitor.
Thirty minutes after initiating vehicle or compound infusion a continuous electrical current was delivered to the lumen of the left circumflex (LCX) coronary artery to cause endothelial damage and stimulate the production of a thrombus. Thrombi were allowed to mature for 1 hour prior to attempting to lyse the thrombus and cause vessel reperfusion with t-PA. A total of 4 bolus injections of t-PA (each 0.45 mg/kg i.v.) were given sequentially at 15 minute intervals. Blood flow through the coronary artery was then monitored for a further 2 hours so as to assess vessel patency. Time to vessel occlusion, and reperfusion were measured and the quantity and quality of blood flow analysed post-vessel re-perfusion. In addition, the effect of treatment on surgical bleeding, activated clotting time, cutaneous bleeding and platelet aggregation was also assessed.

Setting [3] is: TAFIa, FAAL substrate, Ki calculated from IC50 using Cheng-Prusoff equation, read-out: Ki.

The structures appear in SMILES notation. Read-outs that look alike come from different tables or passages of the source.

The Ki is the dissociation constant of the complex between target and ligand, obtained from inhibition or displacement.

As for `CCCn1cnc(CC(CCCCN)C(=O)O)c1` (racemic) [Example 3, (±)-6-Amino-2-[(1-n-propyl-1H-imidazol-4-yl)methyl]hexanoic acid], the Ki in assay [1] (setting [3]) was 310 nM.

Regarding `CCCn1cnc(C[C@H](CCCN)C(=O)O)c1` [Example 7, (+)-(2S)-5-Amino-2-[(1-n-propyl-1H-imidazol-4-yl)methyl]pentanoic acid], in assay [2], the “injured vessels patent at the end of the experiment” value is on record as 8/8. Also, the “blood flow post-reperfusion (FIG. 1)” value in assay [2] (dogs, t-PA 4 x 0.45 mg/kg i.v. boluses, comparison of treatment groups) is “far superior to tPA alone”. Besides, the “proportion of animals in which flow was >75% of baseline at the end of the protocol” value in assay [2] (dogs, with t-PA, versus respective controls) is “significantly increased”. In addition, the “period over which improvement in coronary blood flow was maintained” value in assay [2] (dogs, with t-PA, whole of the reperfusion period) worked out at 165 min. Moreover, the inhibitory constant (Ki) in assay [1] turned out to be 13 nM.

On to `NCCN[C@@H](Cc1c[nH]cn1)C(=O)O` [Example 11, (2S)-2-[(2-Aminoethyl)amino]-3-(1H-imidazol-4-yl)propanoic acid], for which, in assay [1] (setting [3]), the inhibitory constant (Ki) was 344 nM.

For the compound `NCCN[C@@H](Cc1cn(Cc2cncs2)cn1)C(=O)O` [Example 45, (2S)-2-[(2-Aminoethyl)amino]-3-[1-(1,3-thiazol-5-ylmethyl)-1H-imidazol-4-yl]propanoic acid], in assay [1] (setting [3]), the Ki is 197 nM.

With `CC(=O)Oc1ccccc1C(=O)O` [aspirin, reference compound], the “injured vessels patent at the end of the experiment” value in assay [2] is listed as 1/8.

Source of the values: patent US6949577B2, “Pharmaceuticals” (Pfizer, Inc., priority 2000, dated 2005).
